Laboratory results taken from PMC7150891, “Mertansine Inhibits mRNA Expression and Enzyme Activities of Cytochrome P450s and Uridine 5′-Diphospho-Glucuronosyltransferases in Human Hepatocytes and Liver Microsomes” (Pharmaceutics, 2020).
“Also recorded” adds a separate entry of the source.

Key:
CYP2D6 = tested on: CYP2D6; parameters: method as in PMID 25048520, PMID 22752008; conditions: human liver microsomes, competitive; read-out: Ki, CYP2D6-mediated dextromethorphan O-demethylation; cited from earlier work
UGT1A9 mRNA = UGT1A9 mRNA level in human hepatocytes after 48 h treatment (RT-PCR); conditions: plated cryopreserved human hepatocytes, IC50, suppression of UGT1A9 mRNA expression, 1.25–2500 nM
UGT1A3 = molecular target: T1, UGT1A3 (Homo sapiens, UniProt P35503); assay: Inhibition of UGT1A3-catalyzed chenodeoxycholic acid 24-acyl-β-glucuronidation in ultrapooled human liver microsomes; format: in vitro ADME
T1 construct: ultrapooled human liver microsomes (0.2 mg/mL); from tissue; host or cells: human liver microsomes (ultrapooled)
T1 sequence (P35503 29-534): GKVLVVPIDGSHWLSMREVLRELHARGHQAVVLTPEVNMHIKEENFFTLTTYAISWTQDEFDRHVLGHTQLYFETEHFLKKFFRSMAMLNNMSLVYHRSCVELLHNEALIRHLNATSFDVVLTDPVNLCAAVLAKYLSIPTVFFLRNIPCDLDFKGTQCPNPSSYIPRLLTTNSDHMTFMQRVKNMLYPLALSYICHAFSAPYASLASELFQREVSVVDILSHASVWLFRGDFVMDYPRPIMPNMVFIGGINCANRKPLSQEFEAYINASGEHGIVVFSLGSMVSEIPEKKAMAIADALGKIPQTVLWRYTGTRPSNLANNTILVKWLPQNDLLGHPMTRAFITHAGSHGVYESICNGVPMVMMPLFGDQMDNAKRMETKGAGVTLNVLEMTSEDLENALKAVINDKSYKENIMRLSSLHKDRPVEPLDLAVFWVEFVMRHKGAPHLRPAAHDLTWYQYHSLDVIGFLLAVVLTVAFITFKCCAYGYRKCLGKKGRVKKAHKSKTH
Protocol: The inhibitory potential of mertansine on UGT1A1, UGT1A3, UGT1A4, UGT1A6, UGT1A9, and UGT2B7 activities was evaluated using liquid chromatography–tandem mass spectrometry (LC-MS/MS) with a cocktail of UGT substrates and ultrapooled human liver microsomes. Each incubation mixture was prepared to a final volume of 100 μL as follows: ultrapooled human liver microsomes (0.2 mg/mL), 5 mM UDPGA, 10 mM magnesium chloride, alamethicin (25 μg/mL), 50 mM Tris buffer (pH 7.4), various concentrations of mertansine in methanol (final concentrations of 0.01–50 μM), and the cocktail sets of UGT enzyme-specific substrates. Two cocktail sets were used: set A contained 0.5 μM SN-38 for UGT1A1, 2 μM chenodeoxycholic acid for UGT1A3, and 0.5 μM trifluoperazine for UGT1A4; and set B contained 1 μM N-acetylserotonin for UGT1A6, 0.2 μM mycophenolic acid for UGT1A9, and 1 μM naloxone for UGT2B7. The reactions were initiated by adding UDPGA and incubated in a shaking water bath for 60 min at 37 °C. […] Next, 50 μL of each supernatant of sets A and B was mixed, and aliquots (5 μL) were analyzed using LC-MS/MS. […]
The LC-MS/MS system was comprised of an Agilent 6495 triple quadrupole mass spectrometer coupled with an Agilent 1290 Infinity system (Agilent Technologies, Wilmington, DE, USA). […] The electrospray ionization (ESI) source settings in both positive and negative ion modes were as follows: gas temperature, 200 °C; gas flow, 14 L/min; nebulizer, 40 psi; sheath gas temperature, 380 °C; sheath gas flow, 11 L/min; capillary voltage, 4500 V; and nozzle voltage, 500 V. Each metabolite was quantified via selected reaction monitoring in the negative ion mode (chenodeoxycholic acid 24-acyl-β-glucuronide, m/z 567.1 to 391.2; mycophenolic acid β-D-glucuronide, m/z 495.0 to 319.0; propofol glucuronide (IS), m/z 353.0 to 177.0) and in the positive ion mode (SN-38 glucuronide, m/z 568.9 to 392.9; trifluoperazine N-β-D-glucuronide, m/z 583.9 to 407.9; N-acetylserotonin β-D-glucuronide, m/z 394.0 to 219.0; naloxone 3-β-D-glucuronide, m/z 503.9 to 309.9; meloxicam (IS), m/z 351.9 to 115.0). […]

COc1cc2cc(c1Cl)N(C)C(=O)CC(OC(=O)C(C)N(C)C(=O)CCS)C1(C)OC1C(C)C1CC(O)(NC(=O)O1)C(OC)C=CC=C(C)C2 (centres unmarked) [mertansine, Mertansine]
Ki (CYP2D6): 14000 nM
IC50 at 48 h (UGT1A9 mRNA; Mean ± SD of three human hepatocyte lots, 48 h): 54.1 ± 29.1 nM
IC50 at 48 h (UGT1A9 mRNA; human hepatocytes Lot 319, 48 h): 86.9 nM
IC50 at 48 h (UGT1A9 mRNA; human hepatocytes Lot 321, 48 h): 31.4 nM
IC50 at 48 h (UGT1A9 mRNA; human hepatocytes Lot 361, 48 h): 44.1 nM
Inhibition Mode, UGT1A3 (UGT1A3; human liver microsomes, Dixon plot): competitively inhibited; also recorded: competitive inhibitor
Ki (UGT1A3; human liver microsomes, chenodeoxycholic acid 0.5–5 µM): 4300 nM
IC50 (UGT1A3; ultrapooled human liver microsomes, 2 µM chenodeoxycholic acid (cocktail)): 6400 nM
